Source: ChEMBL document CHEMBL6178018, “Design of an Oral STING Agonist through Intramolecular Hydrogen Bond Ring Mimicking to Achieve Complete Tumor Regression” (J Med Chem, 2025)
pEC50, pIC50: −log10 of the molar value.

Experiments:
[1] = target: T1, Stimulator of interferon genes protein (Homo sapiens, UniProt Q86WV6); experiment: Agonist activity at human STING HAQ variant in human THP1-Blue ISG cells assessed as fold change in stimulation activity measured after 24 hrs incubation by QUANTI-Blue based microplate reader; assay type: cell-based
Target sequence in this assay (Q86WV6 whole entry, looked up, change not shown): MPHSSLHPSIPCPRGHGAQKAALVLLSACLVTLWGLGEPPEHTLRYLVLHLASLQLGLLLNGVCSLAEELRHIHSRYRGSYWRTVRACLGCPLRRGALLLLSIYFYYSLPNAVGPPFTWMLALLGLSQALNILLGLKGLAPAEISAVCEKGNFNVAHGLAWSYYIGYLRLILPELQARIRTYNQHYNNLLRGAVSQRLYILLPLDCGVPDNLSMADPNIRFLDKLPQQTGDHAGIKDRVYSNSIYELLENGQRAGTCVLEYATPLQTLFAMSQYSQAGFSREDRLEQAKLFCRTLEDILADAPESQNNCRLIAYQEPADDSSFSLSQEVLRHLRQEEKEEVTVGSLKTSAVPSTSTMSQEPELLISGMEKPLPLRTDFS

[2] = target: T1, Stimulator of interferon genes protein; experiment: Binding affinity to wild type His-tagged STING (unknown origin) measured after 3 hrs incubation by HTRF assay
Target sequence in this assay (Q86WV6 whole entry): as the sequence (Q86WV6 whole entry, looked up, change not shown) above

[3] = target: T2, Stimulator of interferon genes protein (Mus musculus, UniProt Q3TBT3); experiment: Agonist activity at mouse STING expressed in human THP1-Dual cells assessed as fold change in stimulation activity measured after 24 hrs incubation by QUANTI-Luc4 based microplate reader; assay type: cell-based
T2 sequence (Q3TBT3 whole entry): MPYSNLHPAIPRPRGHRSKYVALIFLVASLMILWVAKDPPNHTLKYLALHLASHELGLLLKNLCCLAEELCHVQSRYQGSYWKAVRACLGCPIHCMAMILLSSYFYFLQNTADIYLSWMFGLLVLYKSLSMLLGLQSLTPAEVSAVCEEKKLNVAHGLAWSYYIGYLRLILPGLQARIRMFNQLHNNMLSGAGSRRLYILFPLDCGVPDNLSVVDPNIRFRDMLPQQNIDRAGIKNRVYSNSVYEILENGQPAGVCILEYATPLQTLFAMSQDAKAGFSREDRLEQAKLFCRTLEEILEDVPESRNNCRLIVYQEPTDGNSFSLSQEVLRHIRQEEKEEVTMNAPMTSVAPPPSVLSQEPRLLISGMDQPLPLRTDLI

[4] = target: T1, Stimulator of interferon genes protein; experiment: Agonist activity at STING R232 mutant (unknown origin) expressed in human THP1-Dual cells assessed as fold change in stimulation activity measured after 24 hrs incubation by QUANTI-Luc4 based microplate reader; assay type: cell-based
Target sequence in this assay (Q86WV6 whole entry, looked up, change not shown): as the sequence (Q86WV6 whole entry, looked up, change not shown) above

[5] = Chemical stability of the compound in MeOH/H2O assessed as half life by LC-MS/MS analysis; assay type: physicochemical
[6] = target: T1, Stimulator of interferon genes protein; experiment: Agonist activity at human STING in human THP1-Blue ISG cells measured after 24 hrs incubation by QUANTI-Blue based microplate reader; assay type: cell-based
Target sequence in this assay (Q86WV6 whole entry): as the sequence (Q86WV6 whole entry, looked up, change not shown) above

Row | Structure (SMILES) | pEC50 [1] | further results
1 | C#Cc1c(C(=O)NCCC(=O)O)sc2cc(OC)c(OC)cc12 | < 4.00 | 
2 | CCC(CNC(=O)c1sc2cc(OC)c(OC)c(F)c2c1F)C(=O)O (stereo not given) | < 4.00 | 
3 | COc1cc2sc(C(=O)NCC3(C(=O)O)CC3)c(F)c2cc1OC | < 4.00 | 
4 | COc1cc2sc(C(=O)NC(C)(C)CC(=O)O)c(F)c2cc1OC | < 4.00 | 
5 | COc1ccc2c(F)c(C(=O)NCCC(=O)O)sc2c1 | < 4.00 | 
6 | CONC(=O)C(F)(F)CNC(=O)c1sc2cc(OC)c(Br)cc2c1F | < 4.00 | 
7 | CCC(CNC(=O)c1[se]c2cc(OC)c(OC)cc2c1F)C(=O)O (stereo not given) | 5.42 | pEC50 [3]: 4.90; pEC50 [4]: 4.88
8 | COc1cc2sc(C(=O)NCCc3nnn[nH]3)c(F)c2cc1OC | < 4.00 | 
9 | CONC(=O)C(C)CNC(=O)c1sc2cc(OC)c(Br)cc2c1F (stereo not given) | < 4.00 | 
10 | COc1cc2sc(C(=O)NCC(F)(F)C(=O)O)c(F)c2cc1Br | < 4.00 | 
11 | COc1cc2sc(C(=O)N[C@@H](CC(=O)O)C(N)=O)c(F)c2cc1OC | < 4.00 | 
12 | COc1cc2sc(C(=O)NCCC(N)=O)c(F)c2cc1OC | < 4.00 | 
13 | COc1cc2sc(C(=O)NCCC(=O)O)c(C)c2cc1OC | < 4.00 | 
14 | CCC(CNC(=O)c1sc2cc(OC)c(OC(F)F)cc2c1F)C(=O)O (stereo not given) | < 4.00 | 

Second part, led by results:

Row | pEC50 [1] | Structure (SMILES) | further results
15 | < 4.00 | COc1cc2sc(C(=O)NCC(F)(F)C(=O)O)c(F)c2cc1OC | 
16 | < 4.00 | COc1cc2sc(C(=O)N[C@H](C)CC(=O)O)c(F)c2cc1OC | 
17 | 4.26 | COc1cc2sc(C(=O)NCCCC(=O)O)c(F)c2cc1OC | 
18 | 4.95 | CC[C@@H](CNC(=O)c1sc2cc(OC)c(OC)cc2c1F)C(=O)O | pIC50 [2]: 4.18; pEC50 [3]: 4.34; pEC50 [4]: 4.29
19 | 5.15 | COc1cc2sc(C(=O)NCC(C)C(=O)O)c(F)c2cc1OC (racemic) | pIC50 [2]: 4.51; pEC50 [3]: 4.60; pEC50 [4]: 4.48
20 | 4.52 | COc1cc2sc(C(=O)NCCC(=O)O)c(F)c2cc1OC | pIC50 [2]: 4.30; half-life [5]: > 48 h; pEC50 [6]: 4.52
21 | 5.33 | COc1cc2sc(C(=O)NC[C@@H](C)C(=O)O)c(F)c2cc1OC | pIC50 [2]: 4.54; pEC50 [3]: 4.55; pEC50 [4]: 4.44
22 | 4.58 | COc1cc2sc(C(=O)NCCC(=O)O)c(Cl)c2cc1OC | 
23 | 5.46 | CCC(CNC(=O)c1sc2c(F)c(OC)c(OC)cc2c1F)C(=O)O (stereo not given) | pIC50 [2]: 4.12; pEC50 [3]: 4.03; pEC50 [4]: 4.07
